According to paper PMC3898838, “Design, Synthesis, and Biological Evaluation of an Allosteric Inhibitor of HSET that Targets Cancer Cells with Supernumerary Centrosomes” (Chemistry & Biology, 2013):

Tests used:
[1] = target: T1, full-length, N-terminal, 6His-tagged human HSET (Homo sapiens, UniProt Q9BW19); assay: Differential scanning fluorimetry (DSF); format: binding; conditions: CW069 0.03125-1 mM in 4% DMSO
T1 sequence (Q9BW19 307-663 limits assumed): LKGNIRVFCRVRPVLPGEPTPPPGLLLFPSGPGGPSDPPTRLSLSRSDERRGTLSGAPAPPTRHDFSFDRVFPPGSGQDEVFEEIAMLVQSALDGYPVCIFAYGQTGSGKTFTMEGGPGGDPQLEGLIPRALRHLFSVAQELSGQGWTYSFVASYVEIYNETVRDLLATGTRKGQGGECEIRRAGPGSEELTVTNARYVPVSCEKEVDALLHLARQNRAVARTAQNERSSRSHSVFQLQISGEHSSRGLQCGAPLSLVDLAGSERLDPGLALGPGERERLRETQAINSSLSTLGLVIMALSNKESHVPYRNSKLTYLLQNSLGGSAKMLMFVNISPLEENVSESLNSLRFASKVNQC
Experimental: DSF is an inexpensive and rapid method for identifying ligands of purified proteins, and relies on the difference in protein unfolding temperature in the presence and absence of a small molecule ([Niesen et al., 2007]). The unfolding temperature is measured by the increase in fluorescence of a dye with particular affinity for the hydrophobic regions of proteins, which become exposed upon unfolding ([Niesen et al., 2007]). The difference in the transition midpoint, ΔTm, in the presence of a ligand is related to its binding affinity; however, this is not a direct measure of the binding coefficient and therefore was not used to calculate the affinity of CW069 for HSET ([Holdgate and Ward, 2005]).

[2] = test system: NHDF cells; assay: SRB growth-inhibition assay; format: cell-based; conditions: Homo sapiens, 72 hr, 0.3 μM to 400 μM
Source text: (§1) We next assessed whether CW069 could selectively target proliferation in cancer cells. We used a combination of cell-growth-inhibition assays based on the Sulforhodamine-B (SRB) technique ([Vichai and Kirtikara, 2006]) and IncuCyte live-cell imaging. […] This further highlights that HSET inhibition, unlike that of KSP or CENP-E, provides a unique opportunity to selectively damage malignant cells without harming normal cells.
(§2) NHDF cells were obtained from PromoCell, and the N1E-115 and HeLa cells were obtained from ATCC/LGC Standards. The BT549, MCF-7 and MDA-MB-231 cells were kind gifts from the Caldas laboratory (CRUK Cambridge Institute) and were originally obtained from ATCC/LGC. All human cells were verified by STR genotyping and all tested negative for mycoplasma. Cells were cultured in Dulbecco’s modified Eagle’s medium (DMEM) supplemented with 10% fetal calf serum (FCS) at 37°C and 5% CO2. All compounds used in the Sulforhodamine B colorimetric (SRB) assay ([Vichai and Kirtikara, 2006]) were dissolved in DMSO and diluted in culture medium to a final concentration of 0.2% DMSO. For the SRB assay and live-cell imaging (using the IncuCyte Kinetic Live Cell Imaging System; Select Science), cells were seeded in 96-well plates at a density of 2,500 cells per well. […] Fluorescence was quantified using an Infinite 200 PRO plate-reader (Tecan) at a wavelength of 545 nm. […]

[3] = test system: N1E-115 cells; assay: SRB growth-inhibition assay; format: cell-based; conditions: Mus musculus, N1E-115, 72 hr, 0.3 μM to 400 μM
Source text: as §1, §2

[4] = test system: HeLa cells; assay: Immunofluorescence after time-lapse imaging, monopolar/bipolar spindles; format: cell-based, human; conditions: 200 μM CW069, 100 μM monastrol, 40 mitotic cells
Source text: Immediately after time-lapse imaging, cells were fixed and antibodies against α-tubulin, CDK5RAP2, and DAPI were employed to visualize MTs, centrosomes, and DNA, respectively. […] Control HeLa cells formed mainly bipolar spindles (92%), with two centrosomes positioned at the spindle poles on either side of the metaphase plate (Figure 6C; Table 1). Similar numbers of bipolar spindles were formed in CW069-treated cells (95%; Figure 6C; Table 1). Monastrol-treated cells almost exclusively formed monopolar spindles (97%) with one pole surrounded by DNA ([Luo et al., 2004]; Figure 6C; Table 1). Normal bipolar spindle formation was indeed restored for many cells (45%) when the HSET inhibitor CW069 was administered along with the KSP inhibitor monastrol (Figure 6C; Table 1).
Cells were plated at a seeding density of 1.2 × 10^4 cells per well in Ibidi eight-well chamber slides, incubated for 24 hr, and then treated with compound for 3 hr. Prewarmed 4% paraformaldehyde in PBS was then added to each well to fix the cells before washing with PBS. Permeabilization and blocking was performed by incubating the slides with 1% BSA, 0.3% Triton X-100, 5% goat serum in PBS (PBS/B/0.3%T+5%GS) for 1 hr while shaking them at room temperature (RT). The slides were incubated with primary antibody solutions (mouse monoclonal anti-α-Tubulin [catalog number T9026; Sigma-Aldrich] and rabbit anti-CDK5RAP2 [catalog number A300-554A; Bethyl Laboratories]) at 4°C for 16 hr. The slides were washed four times with PBS/B/0.3%T+5%GS and then incubated with secondary antibody solutions (anti-rabbit IgG Alexa Fluor 488 [catalog number A21206] and anti-mouse IgG Alexa Fluor 647 [catalog number A20990]; Invitrogen) and DAPI (catalog number D3571; Invitrogen) in deionized water (300 nM) in the dark at RT for 1 hr. After four washes with PBS/B/0.3%T+5%GS, the solution was replaced with PBS and the slides were stored at 4°C until imaging was performed. Images were gathered with the use of an ICys Research Imaging Cytometer (CompuCyte) or a tandem confocal microscope (Leica).

maximum HSET ΔTm [1]: −8.0 °C
Compound: O=C(O)c1cc(I)ccc1NC(=O)[C@H](Cc1ccccc1)NCc1ccccc1 [CW069]
IC50 [2]: 181 ± 7 µM
IC50 [3]: 86 ± 10 µM
Bipolar Spindle (%) [4]: 95%
Monopolar Spindle (%) [4]: 5%
